Data: patent US9708318B2, “Bicyclic heterocycles as FGFR4 inhibitors” (Incyte Corporation, priority 2015, dated 2017)
Read-outs that look alike come from different tables or passages of the source.

Columns and labels:
FGFR1 = FGFR1 (Homo sapiens (Human), UniProt P11362); experiment: FGFR Enzymatic Assay (FRET peptide phosphorylation), FGFR1; conditions: FGFR1 IC50 (nM)
FGFR3 enzyme = FGFR3 enzyme (Homo sapiens (Human), UniProt P22607); experiment: FGFR Enzymatic Assay (FRET peptide phosphorylation), FGFR3; format: biochemical; conditions: for FGFR1/FGFR3 IC50 ratio / FGFR4/FGFR3 IC50 ratio: FGFR3 selectivity; for IC50: read-out: FGFR3 IC50
Protocol: (§1) The inhibitor potency of the exemplified compounds was measured in an enzyme assay that measures peptide phosphorylation using FRET measurements to detect product formation. Inhibitors were serially diluted in DMSO and a volume of 0.5 μL was transferred to the wells of a 384-well plate.
(§2) GraphPad prism3 was used to analyze the data.

FGFR2 = FGFR2 (Homo sapiens (Human), UniProt P21802); experiment: FGFR Enzymatic Assay (FRET peptide phosphorylation), FGFR2; format: biochemical
Protocol: as §1
(§3) The enzymes were purchased from Millipore or Invitrogen.
as §2

FGFR4 = FGFR4 (Homo sapiens (Human), UniProt P22455); experiment: FGFR Enzymatic Assay (FRET peptide phosphorylation), FGFR4; format: biochemical
Protocol: as §1, §3, §2

[1] = pre-incubated for 5 to 10 minutes
[2] = FGFR4 selectivity, pre-incubated for 4 hours

Sequence of FGFR4 (P22455 22-802): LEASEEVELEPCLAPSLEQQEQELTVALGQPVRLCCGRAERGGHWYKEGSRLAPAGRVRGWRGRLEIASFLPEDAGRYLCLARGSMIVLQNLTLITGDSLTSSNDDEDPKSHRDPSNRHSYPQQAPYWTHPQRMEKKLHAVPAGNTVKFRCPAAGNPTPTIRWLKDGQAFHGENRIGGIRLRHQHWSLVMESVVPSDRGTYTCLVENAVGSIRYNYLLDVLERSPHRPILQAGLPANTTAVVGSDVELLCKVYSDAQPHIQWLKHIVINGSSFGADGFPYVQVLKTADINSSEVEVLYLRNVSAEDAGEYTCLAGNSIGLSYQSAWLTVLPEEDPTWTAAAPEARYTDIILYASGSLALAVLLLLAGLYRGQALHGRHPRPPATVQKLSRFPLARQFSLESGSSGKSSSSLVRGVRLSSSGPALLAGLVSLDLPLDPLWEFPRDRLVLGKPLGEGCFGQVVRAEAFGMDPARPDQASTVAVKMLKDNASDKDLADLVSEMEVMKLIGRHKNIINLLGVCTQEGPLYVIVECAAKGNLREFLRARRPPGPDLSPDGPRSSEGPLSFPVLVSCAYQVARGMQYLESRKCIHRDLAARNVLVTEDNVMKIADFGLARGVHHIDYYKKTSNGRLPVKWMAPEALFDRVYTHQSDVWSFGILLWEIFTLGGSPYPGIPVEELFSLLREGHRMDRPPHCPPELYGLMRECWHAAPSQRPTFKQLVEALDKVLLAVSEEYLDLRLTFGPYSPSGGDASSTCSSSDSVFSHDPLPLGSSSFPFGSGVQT
Sequence of FGFR3 enzyme (P22607 23-806): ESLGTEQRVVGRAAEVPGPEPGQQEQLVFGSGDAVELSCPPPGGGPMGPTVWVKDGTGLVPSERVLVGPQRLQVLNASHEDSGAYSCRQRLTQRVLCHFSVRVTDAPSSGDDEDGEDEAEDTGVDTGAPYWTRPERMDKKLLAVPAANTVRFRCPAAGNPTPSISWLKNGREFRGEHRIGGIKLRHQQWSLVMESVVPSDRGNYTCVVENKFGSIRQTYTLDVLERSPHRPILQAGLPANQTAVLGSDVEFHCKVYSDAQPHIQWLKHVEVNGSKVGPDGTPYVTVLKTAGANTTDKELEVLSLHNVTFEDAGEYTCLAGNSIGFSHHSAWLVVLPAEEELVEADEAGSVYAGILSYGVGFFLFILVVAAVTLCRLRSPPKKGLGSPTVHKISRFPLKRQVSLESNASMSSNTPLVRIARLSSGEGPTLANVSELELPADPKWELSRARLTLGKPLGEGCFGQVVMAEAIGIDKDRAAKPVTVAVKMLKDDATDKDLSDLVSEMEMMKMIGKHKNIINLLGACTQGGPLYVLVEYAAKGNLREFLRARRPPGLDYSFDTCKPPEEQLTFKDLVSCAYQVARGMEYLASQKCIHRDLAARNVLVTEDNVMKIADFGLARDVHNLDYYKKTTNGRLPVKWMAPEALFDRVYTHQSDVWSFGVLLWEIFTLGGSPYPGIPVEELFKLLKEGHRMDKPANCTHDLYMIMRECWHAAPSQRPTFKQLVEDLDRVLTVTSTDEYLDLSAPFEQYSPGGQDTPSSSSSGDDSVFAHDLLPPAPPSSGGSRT
Sequence of FGFR2 (P21802 22-821): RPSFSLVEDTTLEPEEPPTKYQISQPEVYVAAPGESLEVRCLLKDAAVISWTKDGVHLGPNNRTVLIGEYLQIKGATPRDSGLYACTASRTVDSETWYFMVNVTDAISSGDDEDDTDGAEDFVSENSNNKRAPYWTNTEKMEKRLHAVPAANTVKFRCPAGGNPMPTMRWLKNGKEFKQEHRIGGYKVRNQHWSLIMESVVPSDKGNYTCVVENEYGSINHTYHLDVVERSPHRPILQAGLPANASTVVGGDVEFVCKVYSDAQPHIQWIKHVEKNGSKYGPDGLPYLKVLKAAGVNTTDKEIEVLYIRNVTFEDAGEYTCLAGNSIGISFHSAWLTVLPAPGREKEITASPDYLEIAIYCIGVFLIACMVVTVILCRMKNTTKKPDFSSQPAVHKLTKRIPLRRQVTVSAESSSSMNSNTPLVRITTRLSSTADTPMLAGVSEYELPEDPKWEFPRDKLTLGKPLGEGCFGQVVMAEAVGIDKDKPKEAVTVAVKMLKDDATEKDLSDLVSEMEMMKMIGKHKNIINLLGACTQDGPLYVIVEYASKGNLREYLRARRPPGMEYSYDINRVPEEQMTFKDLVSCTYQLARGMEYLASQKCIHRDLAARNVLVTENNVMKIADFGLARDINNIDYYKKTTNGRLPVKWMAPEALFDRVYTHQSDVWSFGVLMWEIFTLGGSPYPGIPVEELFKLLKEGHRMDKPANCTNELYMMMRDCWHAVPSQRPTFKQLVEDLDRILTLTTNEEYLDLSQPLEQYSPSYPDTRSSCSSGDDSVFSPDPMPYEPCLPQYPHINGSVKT
Sequence of FGFR1 (P11362 22-822): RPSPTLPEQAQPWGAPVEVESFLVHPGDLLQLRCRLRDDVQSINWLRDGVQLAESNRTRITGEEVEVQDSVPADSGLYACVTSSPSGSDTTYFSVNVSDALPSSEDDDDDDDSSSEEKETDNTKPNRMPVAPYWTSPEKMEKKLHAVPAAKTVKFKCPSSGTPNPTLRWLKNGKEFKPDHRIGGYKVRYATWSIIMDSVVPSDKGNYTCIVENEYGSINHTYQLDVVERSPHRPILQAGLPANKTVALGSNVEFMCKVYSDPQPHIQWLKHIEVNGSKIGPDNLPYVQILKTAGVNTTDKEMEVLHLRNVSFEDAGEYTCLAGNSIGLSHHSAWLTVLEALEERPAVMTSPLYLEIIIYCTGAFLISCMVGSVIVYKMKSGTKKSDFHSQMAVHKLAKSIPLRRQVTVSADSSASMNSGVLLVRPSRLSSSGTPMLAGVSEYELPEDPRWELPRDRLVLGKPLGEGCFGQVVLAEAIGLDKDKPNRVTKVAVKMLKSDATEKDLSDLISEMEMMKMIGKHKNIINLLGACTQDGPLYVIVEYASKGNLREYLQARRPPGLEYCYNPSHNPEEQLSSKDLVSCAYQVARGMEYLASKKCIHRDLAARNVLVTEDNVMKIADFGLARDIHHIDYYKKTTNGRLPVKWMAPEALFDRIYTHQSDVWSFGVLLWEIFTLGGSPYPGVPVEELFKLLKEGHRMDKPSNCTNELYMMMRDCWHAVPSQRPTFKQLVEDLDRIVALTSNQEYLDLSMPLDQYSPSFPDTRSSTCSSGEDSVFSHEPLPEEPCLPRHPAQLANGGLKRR

Row | IC50 (FGFR1; pre-incubated for 4 hours) [nM] | FGFR1/FGFR3 IC50 ratio (FGFR3 enzyme; pre-incubated for 4 hours) | FGFR4/FGFR3 IC50 ratio (FGFR3 enzyme; pre-incubated for 4 hours) | IC50 (FGFR3 enzyme; pre-incubated for 4 hours) [nM] | IC50 (FGFR2; pre-incubated for 4 hours) [nM] | IC50 (FGFR4; pre-incubated for 4 hours) [nM] | IC50 (FGFR1; [1]) [nM] | IC50 (FGFR3 enzyme; [1]) [nM] | IC50 (FGFR2; [1]) [nM] | IC50 (FGFR4; [1]) [nM] | FGFR1/FGFR4 IC50 ratio (FGFR4; [2]) | FGFR2/FGFR4 IC50 ratio (FGFR4; [2]) | FGFR3/FGFR4 IC50 ratio (FGFR4; [2]) | SMILES
1 | 30 to 200 | >3 | >3 | < 10 | < 10 | 30 to 200 | – | – | – | – | – | – | – | COc1cc(OC)c(F)c(N2Cc3cnc(-c4cn(C5CCN(C)C5)nc4C)cc3C3(CC3)C2=O)c1F (stereo not drawn) [Example 163, 2′-(2,6-difluoro-3,5-dimethoxyphenyl)-6′-(3-methyl-1-(1-methylpyrrolidin-3-yl)-1H-pyrazol-4-yl)-1′H-spiro[cyclopropane-1,4′-[2,7]naphthyridin]-3′(2′H)-one]
2 | 10 to 30 | >3 | >3 | < 10 | < 10 | 10 to 30 | – | – | – | – | – | – | – | COc1cc(OC)c(F)c(N2Cc3cnc(-c4cnn(CC5CN(S(C)(=O)=O)C5)c4)cc3C3(CC3)C2=O)c1F [Example 166, 2′-(2,6-difluoro-3,5-dimethoxyphenyl)-6′-(1-((1-(methylsulfonyl)azetidin-3-yl)methyl)-1H-pyrazol-4-yl)-1′H-spiro[cyclopropane-1,4′-[2,7]naphthyridin]-3′(2′H)-one]
3 | 30 to 200 | >5 | >10 | < 10 | 10 to 30 | 30 to 200 | – | – | – | – | – | – | – | COc1cc(OC)c(F)c(N2Cc3cnc(-c4cn(C)nc4C)cc3N(Cc3ccc(F)cc3)C2=O)c1F [Example 34, 3-(2,6-difluoro-3,5-dimethoxyphenyl)-7-(1,3-dimethyl-1H-pyrazol-4-yl)-1-(4-fluorobenzyl)-3,4-dihydropyrido[4,3-d]pyrimidin-2(1H)-one]
4 | – | – | – | – | – | – | 10 to 30 | < 10 | < 10 | 30 to 200 | – | – | – | COc1cc(OC)c(F)c(N2Cc3cnc(-c4cn(C)nc4C)cc3N(Cc3cnn(CC4CC4)c3)C2=O)c1F [Example 126, 1-((1-(cyclopropylmethyl)-1H-pyrazol-4-yl)methyl)-3-(2,6-difluoro-3,5-dimethoxyphenyl)-7-(1,3-dimethyl-1H-pyrazol-4-yl)-3,4-dihydropyrido[4,3-d]pyrimidin-2(1H)-one]
5 | 10 to 30 | >5 | >3 | < 10 | < 10 | < 10 | – | – | – | – | – | – | – | COc1cc(OC)c(F)c(N2Cc3cnc(-c4cnn(CCN5CCOCC5)c4)cc3C3(CC3)C2=O)c1F [Example 157, 2′-(2,6-difluoro-3,5-dimethoxyphenyl)-6′-(1-(2-morpholinoethyl)-1H-pyrazol-4-yl)-1′H-spiro[cyclopropane-1,4′-[2,7]naphthyridin]-3′(2′H)-one]
6 | 30 to 200 | >1 | >5 | 10 to 30 | 10 to 30 | 30 to 200 | – | – | – | – | – | – | – | COc1cc(OC)c(F)c(N2Cc3cnc(-c4cn(C)nc4C)cc3N(c3ccc4ncsc4c3)C2=O)c1F [Example 41, 1-(1,3-benzothiazol-6-yl)-3-(2,6-difluoro-3,5-dimethoxyphenyl)-7-(1,3-dimethyl-1H-pyrazol-4-yl)-3,4-dihydropyrido[4,3-d]pyrimidin-2(1H)-one]
7 | 30 to 200 | – | – | 30 to 200 | 30 to 200 | < 10 | – | – | – | – | >10 | >10 | >10 | COc1cc(OC)c(F)c(N2Cc3cnc(-c4[nH]ncc4C#N)cc3C3(CC3)C2=O)c1F [Example 171, 5-(2′-(2,6-difluoro-3,5-dimethoxyphenyl)-3′-oxo-2′,3′-dihydro-1′H-spiro[cyclopropane-1,4′-[2,7]naphthyridine]-6′-yl)-1H-pyrazole-4-carbonitrile]
8 | 30 to 200 | >10 | >10 | < 10 | < 10 | 30 to 200 | 10 to 30 | < 10 | < 10 | 30 to 200 | – | – | – | COc1cc(OC)c(F)c(N2Cc3cnc(-c4ccc(C5(C#N)CCC5)nc4)cc3N(Cc3nnc(C)o3)C2=O)c1F [Example 187, 1-(5-{3-(2,6-difluoro-3,5-dimethoxyphenyl)-1-[(5-methyl-1,3,4-oxadiazol-2-yl)methyl]-2-oxo-1,2,3,4-tetrahydropyrido[4,3-d]pyrimidin-7-yl}pyridin-2-yl)cyclobutanecarbonitrile]
9 | 30 to 200 | >3 | >5 | 10 to 30 | 30 to 200 | 30 to 200 | – | – | – | – | – | – | – | CCc1cnc(N2C(=O)N(c3c(F)c(OC)cc(OC)c3F)Cc3cnc(-c4cn(C)nc4C)cc32)cn1 [Example 106, 3-(2,6-difluoro-3,5-dimethoxyphenyl)-7-(1,3-dimethyl-1H-pyrazol-4-yl)-1-(5-ethylpyrazin-2-yl)-3,4-dihydropyrido[4,3-d]pyrimidin-2(1H)-one]
10 | 10 to 30 | >3 | >5 | < 10 | < 10 | 30 to 200 | – | – | – | – | – | – | – | COc1cc(OC)c(F)c(N2Cc3cnc(-c4cn(C)nc4C)cc3N(c3ccc4cn[nH]c4c3)C2=O)c1F [Example 133, 3-(2,6-difluoro-3,5-dimethoxyphenyl)-7-(1,3-dimethyl-1H-pyrazol-4-yl)-1-(1H-indazol-6-yl)-3,4-dihydropyrido[4,3-d]pyrimidin-2(1H)-one]
11 | 30 to 200 | >10 | >3 | < 10 | 10 to 30 | 10 to 30 | – | – | – | – | – | – | – | COc1cc(OC)c(F)c(N2Cc3cnc(-c4cnn(CCC5CCN(S(C)(=O)=O)CC5)c4)cc3C3(CC3)C2=O)c1F [Example 148, 2′-(2,6-difluoro-3,5-dimethoxyphenyl)-6′-(1-(2-(1-(methylsulfonyl)piperidin-4-yl)ethyl)-1H-pyrazol-4-yl)-1′H-spiro[cyclopropane-1,4′-[2,7]naphthyridin]-3′(2′H)-one]
12 | 30 to 200 | >5 | >10 | 10 to 30 | 10 to 30 | > 200 | – | – | – | – | – | – | – | COc1cc(N2C(=O)N(c3c(F)c(OC)cc(OC)c3F)Cc3cnc(-c4cn(C)nc4C)cc32)ccc1C#N [Example 81, 4-(3-(2,6-difluoro-3,5-dimethoxyphenyl)-7-(1,3-dimethyl-1H-pyrazol-4-yl)-2-oxo-3,4-dihydropyrido[4,3-d]pyrimidin-1(2H)-yl)-2-methoxybenzonitrile]

Row | SMILES | IC50 (FGFR1; pre-incubated for 4 hours) [nM] | FGFR1/FGFR3 IC50 ratio (FGFR3 enzyme; pre-incubated for 4 hours) | FGFR4/FGFR3 IC50 ratio (FGFR3 enzyme; pre-incubated for 4 hours) | IC50 (FGFR3 enzyme; pre-incubated for 4 hours) [nM] | IC50 (FGFR2; pre-incubated for 4 hours) [nM] | IC50 (FGFR4; pre-incubated for 4 hours) [nM] | IC50 (FGFR1; [1]) [nM] | IC50 (FGFR3 enzyme; [1]) [nM] | IC50 (FGFR2; [1]) [nM] | IC50 (FGFR4; [1]) [nM] | FGFR1/FGFR4 IC50 ratio (FGFR4; [2]) | FGFR2/FGFR4 IC50 ratio (FGFR4; [2]) | FGFR3/FGFR4 IC50 ratio (FGFR4; [2])
13 | COc1cc(OC)c(F)c(N2Cc3cnc(-c4cn(C)nc4C)cc3N(c3cnc(C)cn3)C2=O)c1F [Example 107, 3-(2,6-difluoro-3,5-dimethoxyphenyl)-7-(1,3-dimethyl-1H-pyrazol-4-yl)-1-(5-methylpyrazin-2-yl)-3,4-dihydropyrido[4,3-d]pyrimidin-2(1H)-one] | 30 to 200 | >3 | >10 | 10 to 30 | 10 to 30 | 30 to 200 | – | – | – | – | – | – | –
